Our source for the IC50 values is patent publication US20200291018A1, “TAM KINASE INHIBITORS” (SYROS PHARMACEUTICALS, INC., priority 2017, published 2020).

Structures are written as SMILES. pIC50: −log10 of the molar value. Some results are limits rather than exact numbers.

As usually defined, the pIC50 is the IC50 on a negative log10 scale, so that one unit is a factor of ten.

In one assay the target is T1, FLT3 (Homo sapiens, UniProt P36888).
T1 sequence (P36888 27-993): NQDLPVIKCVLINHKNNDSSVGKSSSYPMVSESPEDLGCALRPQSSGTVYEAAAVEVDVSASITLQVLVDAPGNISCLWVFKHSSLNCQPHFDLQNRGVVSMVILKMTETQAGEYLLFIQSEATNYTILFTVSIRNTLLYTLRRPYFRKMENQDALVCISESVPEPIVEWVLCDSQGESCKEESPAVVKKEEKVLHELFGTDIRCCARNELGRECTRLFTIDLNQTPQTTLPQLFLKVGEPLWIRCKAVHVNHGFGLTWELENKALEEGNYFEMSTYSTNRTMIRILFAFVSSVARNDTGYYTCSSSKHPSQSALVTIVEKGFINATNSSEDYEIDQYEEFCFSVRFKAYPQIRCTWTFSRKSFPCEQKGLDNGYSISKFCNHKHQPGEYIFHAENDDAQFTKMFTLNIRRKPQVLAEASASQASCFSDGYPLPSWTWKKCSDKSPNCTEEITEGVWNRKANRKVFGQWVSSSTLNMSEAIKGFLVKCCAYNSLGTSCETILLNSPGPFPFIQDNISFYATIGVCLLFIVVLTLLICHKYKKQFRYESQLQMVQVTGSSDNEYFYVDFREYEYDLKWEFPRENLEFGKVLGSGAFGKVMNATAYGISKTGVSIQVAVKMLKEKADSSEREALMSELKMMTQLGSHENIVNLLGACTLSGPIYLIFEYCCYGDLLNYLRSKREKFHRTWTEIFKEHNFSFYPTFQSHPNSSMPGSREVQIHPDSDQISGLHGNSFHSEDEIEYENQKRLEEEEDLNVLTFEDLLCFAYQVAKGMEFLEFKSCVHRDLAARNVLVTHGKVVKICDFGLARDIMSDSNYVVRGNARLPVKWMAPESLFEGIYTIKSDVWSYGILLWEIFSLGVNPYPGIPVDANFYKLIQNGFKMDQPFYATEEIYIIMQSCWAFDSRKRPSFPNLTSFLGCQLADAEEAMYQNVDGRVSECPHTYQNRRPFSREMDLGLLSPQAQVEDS
As to the kind of experiment: TR-FRET kinase activity assay, FLT3. It counts as biochemical. The settings on record: ATP at Km, 60 minutes. An outline of the steps: (§1)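 Enzyme, fluorescent-labeled peptide substrate and compound were mixed, then ATP was added at each enzyme's Km. Buffer was 50 mM HEPES pH 7.5, 10 mM MgCl2, 1 mM EGTA, 0.01% Brij 35, 1 mM DTT at RT. After 60 min, EDTA quench and 30 min with Eu-anti-phosphotyrosine-site antibody; TR-FRET read gave IC50.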
For orientation: In TR-FRET formats the signal depends on donor and acceptor labels being close together.

In the next assay the target is T2, AXL (Homo sapiens, UniProt P30530).
T2 sequence (P30530 26-894): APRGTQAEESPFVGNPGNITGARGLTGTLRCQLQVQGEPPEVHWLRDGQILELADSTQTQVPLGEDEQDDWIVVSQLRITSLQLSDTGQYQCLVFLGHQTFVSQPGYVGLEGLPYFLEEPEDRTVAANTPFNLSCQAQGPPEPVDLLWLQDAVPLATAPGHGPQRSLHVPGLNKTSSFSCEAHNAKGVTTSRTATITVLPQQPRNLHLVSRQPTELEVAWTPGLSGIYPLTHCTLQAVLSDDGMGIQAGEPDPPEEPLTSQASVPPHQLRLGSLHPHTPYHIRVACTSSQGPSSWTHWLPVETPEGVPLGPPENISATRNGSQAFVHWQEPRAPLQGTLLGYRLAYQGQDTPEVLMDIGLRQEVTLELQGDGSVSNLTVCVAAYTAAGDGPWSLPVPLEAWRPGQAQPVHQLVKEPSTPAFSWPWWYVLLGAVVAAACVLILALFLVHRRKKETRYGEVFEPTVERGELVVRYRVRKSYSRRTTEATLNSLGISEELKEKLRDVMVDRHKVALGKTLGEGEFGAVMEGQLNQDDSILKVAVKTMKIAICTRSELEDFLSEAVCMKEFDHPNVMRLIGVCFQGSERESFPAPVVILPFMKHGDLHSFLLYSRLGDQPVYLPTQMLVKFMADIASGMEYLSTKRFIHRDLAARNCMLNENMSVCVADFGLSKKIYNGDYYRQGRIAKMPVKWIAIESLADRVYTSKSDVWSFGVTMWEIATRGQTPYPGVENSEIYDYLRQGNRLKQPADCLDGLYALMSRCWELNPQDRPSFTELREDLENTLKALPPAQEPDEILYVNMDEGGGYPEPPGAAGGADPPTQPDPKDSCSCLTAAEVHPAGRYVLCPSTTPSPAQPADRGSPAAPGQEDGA
As to the kind of experiment: TR-FRET kinase activity assay, AXL. It counts as biochemical. The settings on record: ATP at Km, 60 minutes. The gist of the method:
as §1

With `CCC(CC)Nc1ncc2c(=O)n(C3CCNCC3)cc([C@H]3CC[C@H](O)CC3)c2n1` [Compound 120], the pIC50 against FLT3 and against AXL was 5.00 to 6.00 each time.

For `COC[C@H](C)Nc1ncc2c(OC3CCOCC3)ncc([C@H]3CC[C@H](O)CC3)c2n1` [Compound 122, (1S,4r)-4-(2-(((S)-1-methoxypropan-2-yl)amino)-5-((tetrahydro-2H-pyran-4-yl)oxy)pyrido[4,3-d]pyrimidin-8-yl)cyclohexan-1-ol], the pIC50 was 5.00 to 6.00 against FLT3 and 6.00 to 7.00 against AXL.

On to `CCCCNc1ncc2c(NC3CCOCC3)ncc([C@H]3CC[C@H](O)CC3)c2n1` [Compound 124], for which the pIC50 against FLT3 and on AXL was at least 7.00 throughout.

As for `CCCCNc1ncc2c(OCCOC)ncc([C@H]3CC[C@H](O)CC3)c2n1` [Compound 125], the pIC50 at FLT3 is at least 7.00; against AXL it was 6.00 to 7.00.

For the compound `CCC[C@H](C)Nc1ncc2c(=O)n(C3CCNCC3)cc([C@H]3CC[C@H](O)CC3)c2n1` [Compound 126], the pIC50 is 5.00 to 6.00 on FLT3 and 6.00 to 7.00 against AXL.

As to `COCCN1C(C)(C)CC(Oc2ncc([C@H]3CC[C@H](O)CC3)c3nc(N[C@@H](C)CC(F)(F)F)ncc23)CC1(C)C` [Compound 355], the pIC50 at FLT3 is 6.00 to 7.00; on AXL it was at least 7.00.

For the compound `Cc1ncc([C@H]2CC[C@H](O)CC2)c2nc(N[C@@H](C)CC(F)(F)F)ncc12` [Compound 356], the pIC50 against FLT3 is 5.00 to 6.00; against AXL it was 6.00 to 7.00.

`COC[C@H](C)Nc1ncc2c(O[C@H]3CCOC3)ncc([C@H]3CC[C@H](O)CC3)c2n1` [Compound 357]: the pIC50 on FLT3 and against AXL was 5.00 to 6.00 in each case.

For the compound `COC[C@H](C)Nc1ncc2c(OC3CCOCC3)ncc(C3CCC(F)(F)CC3)c2n1` [Compound 358], the negative logarithm of the IC50 (pIC50) on FLT3 and against AXL was 5.00 to 6.00 in each case.

Consider `CCOc1ncc([C@H]2CC[C@H](O)CC2)c2nc(N[C@@H](C)CC(F)(F)F)ncc12` [Compound 359], for which the pIC50 against FLT3 and on AXL was 6.00 to 7.00 throughout.

As for `C[C@@H](CC(F)(F)F)Nc1ncc2c(O[C@H]3C[C@@H](O)C3)ncc([C@H]3CC[C@H](O)CC3)c2n1` [Compound 360], the pIC50 against FLT3 and against AXL was 6.00 to 7.00 each time.

As for `COC[C@H](C)Nc1ncc2c(OC3CC(C)(C)N(C(C)=O)C(C)(C)C3)ncc([C@H]3CC[C@H](O)CC3)c2n1` [Compound 361], the pIC50 against FLT3 and at AXL was 5.00 to 6.00 throughout.

Turning to `COC[C@H](C)Nc1ncc2c(Nc3ccncc3)ncc([C@H]3CC[C@H](O)CC3)c2n1` [Compound 362], the negative logarithm of the IC50 (pIC50) against FLT3 and against AXL was 5.00 to 6.00 in each case.

Turning to `COC[C@H](C)Nc1ncc2c(Nc3cccnc3)ncc([C@H]3CC[C@H](O)CC3)c2n1` [Compound 363], the pIC50 at FLT3 and against AXL was 5.00 to 6.00 in each case.

Turning to `C[C@@H](CC(F)(F)F)Nc1ncc2c(O[C@H]3C[C@H](O)C3)ncc([C@H]3CC[C@H](O)CC3)c2n1` [Compound 364], the negative logarithm of the IC50 (pIC50) against FLT3 and on AXL was 6.00 to 7.00 each time.

For `C[C@H](Nc1ncc2c(OC3CCOCC3)ncc([C@H]3CC[C@H](O)CC3)c2n1)C(F)F` [Compound 365], the pIC50 was 5.00 to 6.00 on FLT3 and 6.00 to 7.00 on AXL.

As for `COC[C@H](C)Nc1ncc2c(O[C@@H]3CCN(C)C3)ncc([C@H]3CC[C@H](O)CC3)c2n1` [Compound 366], the pIC50 against FLT3 and against AXL was 5.00 to 6.00 throughout.

As to `CC[C@@H](C)Nc1ncc2c(OC3CC(C)(C)N(C)C(C)(C)C3)ncc([C@H]3CC[C@H](O)CC3)c2n1` [Compound 367], the results for the negative logarithm of the IC50 (pIC50) on FLT3 and on AXL were 6.00 to 7.00 and at least 7.00, respectively.

For the compound `COC[C@H](C)Nc1ncc2c(O[C@H]3CCN(C)C3)ncc([C@H]3CC[C@H](O)CC3)c2n1` [Compound 368], the figures for the pIC50 at FLT3 and at AXL were below 5.00 and 5.00 to 6.00, respectively.

As to `COCCN1CCC(Oc2ncc([C@H]3CC[C@H](O)CC3)c3nc(N[C@@H](C)CC(F)(F)F)ncc23)CC1` [Compound 369], the results for the pIC50 against FLT3 and against AXL were 5.00 to 6.00 and 6.00 to 7.00, respectively.

Consider `C[C@@H](CC(F)(F)F)Nc1ncc2c(OC3C[C@H]4CC[C@@H](C3)N4C)ncc([C@H]3CC[C@H](O)CC3)c2n1` (some centres unmarked) [Compound 370], for which the negative logarithm of the IC50 (pIC50) at FLT3 was 6.00 to 7.00; against AXL, at least 7.00.

Take `COC[C@H](C)Nc1ncc2c(OC3C[C@@H](C)N(C)[C@@H](C)C3)ncc([C@H]3CC[C@H](O)CC3)c2n1` (some centres unmarked) [Compound 371]: the pIC50 is 5.00 to 6.00 at FLT3 and 6.00 to 7.00 against AXL.

`COC[C@H](C)Nc1ncc2c(Nc3ccnc(C)c3)ncc([C@H]3CC[C@H](O)CC3)c2n1` [Compound 372]: the negative-log IC50 (pIC50) on FLT3 and against AXL was 5.00 to 6.00 in each case.

With `C[C@@H](CC(F)(F)F)Nc1ncc2c(OC3CCN(c4ncccn4)CC3)ncc([C@H]3CC[C@H](O)CC3)c2n1` [Compound 373], the negative logarithm of the IC50 (pIC50) on FLT3 was 5.00 to 6.00; against AXL it was 6.00 to 7.00.

Turning to `COC[C@H](C)Nc1ncc2c(Nc3ccc(C)nc3)ncc([C@H]3CC[C@H](O)CC3)c2n1` [Compound 374], the negative logarithm of the IC50 (pIC50) on FLT3 and on AXL was 5.00 to 6.00 throughout.

`Cc1nccc(N2CCC(Oc3ncc([C@H]4CC[C@H](O)CC4)c4nc(N[C@@H](C)CC(F)(F)F)ncc34)CC2)n1` [Compound 375]: the negative-log IC50 (pIC50) against FLT3 and against AXL was 6.00 to 7.00 in each case.

Take `COCCN1C(C)(C)CC(Oc2ncc([C@H]3CC[C@H](O)CC3)c3nc(N[C@@H](C)CC#N)ncc23)CC1(C)C` [Compound 376]: the figures for the pIC50 on FLT3 and on AXL were 5.00 to 6.00 and 6.00 to 7.00, respectively.

Consider `COCC(=O)N1C(C)(C)CC(Oc2ncc([C@H]3CC[C@H](O)CC3)c3nc(N[C@@H](C)CC(F)(F)F)ncc23)CC1(C)C` [Compound 377], for which the pIC50 against FLT3 and at AXL was 5.00 to 6.00 each time.

For the compound `C[C@@H](CC(F)(F)F)Nc1ncc2c(OC3CCN([C@@H]4CCOC4)CC3)ncc([C@H]3CC[C@H](O)CC3)c2n1` [Compound 378], the pIC50 at FLT3 was 5.00 to 6.00; at AXL, 6.00 to 7.00.

As to `COCCN1C(C)(C)CC(Oc2ncc([C@H]3CC[C@H](O)CC3)c3nc(NC4(C)CC4)ncc23)CC1(C)C` [Compound 379], the figures for the negative logarithm of the IC50 (pIC50) at FLT3 and against AXL were 6.00 to 7.00 and at least 7.00, respectively.

As for `COCCN1C(C)(C)CC(Oc2ncc([C@H]3CC[C@H](O)CC3)c3nc(N[C@@H](C)CCO)ncc23)CC1(C)C` [Compound 380], the negative-log IC50 (pIC50) was 5.00 to 6.00 against FLT3 and 6.00 to 7.00 against AXL.

Take `COCCN1C(C)(C)CC(Oc2ncc([C@H]3CC[C@H](O)CC3)c3nc(N[C@@H](C)CF)ncc23)CC1(C)C` [Compound 381]: the pIC50 is 5.00 to 6.00 at FLT3 and at least 7.00 at AXL.

As to `C[C@@H](CF)Nc1ncc2c(OC3CC(C)(C)N(C)C(C)(C)C3)ncc([C@H]3CC[C@H](O)CC3)c2n1` [Compound 382], the pIC50 against FLT3 was 5.00 to 6.00; on AXL, 6.00 to 7.00.

As to `C[C@@H](CC(F)(F)F)Nc1ncc2c(OC3CCN([C@H]4CCOC4)CC3)ncc([C@H]3CC[C@H](O)CC3)c2n1` [Compound 383], the pIC50 against FLT3 was 5.00 to 6.00; against AXL it was 6.00 to 7.00.
